Patent US6737383B1, “Herbicidal oxadiazolidines” (priority 1999, dated 2004)

Key:
blackgrass = assay: Test B pre/postemergence blackgrass; assay type: in vivo, Alopecurus myosuroides
Procedure, shortened: (§1)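 Test chemicals in a non-phytotoxic solvent mixture with surfactant were sprayed preemergence onto planted seeds and postemergence onto plants 2 to 18 cm tall (1- to 4-leaf stage). After twelve to sixteen days in a greenhouse, injury was visually rated against untreated controls from 0 (no effect) to 10 (complete control).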

cocklebur = assay: Test B pre/postemergence cocklebur; assay type: in vivo, Xanthium strumarium
Procedure, shortened: as §1

corn = assay: Test B pre/postemergence corn; assay type: in vivo, Zea mays
Procedure, shortened: as §1

crabgrass = assay: Test B pre/postemergence crabgrass; assay type: in vivo, Digitaria sanguinalis
Procedure, shortened: as §1

giant foxtail = assay: Test B pre/postemergence giant foxtail; assay type: in vivo, Setaria faberii
Procedure, shortened: as §1

morningglory = assay: Test B pre/postemergence morningglory; assay type: in vivo, Ipomoea hederacea
Procedure, shortened: as §1

pigweed = assay: Test B pre/postemergence pigweed; assay type: in vivo, Amaranthus retroflexus
Procedure, shortened: as §1

rape = assay: Test B pre/postemergence rape; assay type: in vivo, Brassica napus
Procedure, shortened: as §1

soybean = assay: Test B pre/postemergence soybean; assay type: in vivo, Glycine max
Procedure, shortened: as §1

sugar beet = assay: Test B pre/postemergence sugar beet; assay type: in vivo, Beta vulgaris
Procedure, shortened: as §1

velvetleaf = assay: Test B pre/postemergence velvetleaf; assay type: in vivo, Abutilon theophrasti
Procedure, shortened: as §1

wheat = assay: Test B pre/postemergence wheat; assay type: in vivo, Triticum aestivum
Procedure, shortened: as §1

purple nutsedge = assay: Test B pre/postemergence purple nutsedge; assay type: in vivo, Cyperus rotundus
Procedure, shortened: as §1

rice = assay: Test B flood test rice; assay type: in vivo, Oryza sativa
Procedure, shortened: (§2)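 Each value is a visual injury score relative to controls, with 10 meaning complete control and 0 no effect. Evaluation took place twelve to sixteen days after the 2-leaf-stage plants were treated and kept in the greenhouse.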

smallflower flatsedge = assay: Test B flood test smallflower flatsedge; assay type: in vivo, Cyperus difformis
Procedure, shortened: as §2

duck salad = assay: Test B flood test duck salad; assay type: in vivo, Heteranthera limosa
Procedure, shortened: as §2

[1] = Preemergence, Rate 250 g/ha, scale of 0 to 10 where 0 is no effect and 10 is complete control
[2] = Preemergence, Rate 500 g/ha, scale of 0 to 10 where 0 is no effect and 10 is complete control
[3] = Rate 62 g/ha, Postemergence, scale of 0 to 10 where 0 is no effect and 10 is complete control
[4] = Rate 125 g/ha, Postemergence, scale 0 to 10
[5] = Rate 125 g/ha, Preemergence, scale of 0 to 10 where 0 is no effect and 10 is complete control
[6] = Rate 500 g/ha, Postemergence, scale 0 to 10, 0 no effect, 10 complete control
[7] = Preemergence, Rate 62 g/ha, scale of 0 to 10 where 0 is no effect and 10 is complete control
[8] = Rate 62 g/ha, headed Pre-emergence (flood test species), scale 0 to 10 (0 no effect, 10 complete control)
[9] = Rate 125 g/ha, Pre-emergence, flood test species, scale 0 to 10 where 0 is no effect and 10 is complete control
[10] = Rate 250 g/ha, Pre-emergence, flood-test species, scale 0 to 10, 0 is no effect, 10 is complete control
[11] = Rate 500 g/ha, Pre-emergence, flood test species, scale 0 to 10 (0 no effect, 10 complete control)

## CC(C)N(C(=O)n1oc(=O)n(CC(C)(C)C)c1=O)c1ccc(F)cc1 [Compound 246]
blackgrass; [1]
  Blackgrass plant response rating: 6
blackgrass; [2]
  Plant response rating, Blackgrass: 10
blackgrass; [3]
  Blackgrass plant response rating: 0
blackgrass; [4]
  Blackgrass plant response rating: 2
blackgrass; [5]
  Blackgrass plant response rating: 5
blackgrass; Rate 250 g/ha, Postemergence
  Plant response rating (0 to 10; 0 is no effect, 10 is complete control), Blackgrass: 6
blackgrass; [6]
  Blackgrass plant response rating: 8
cocklebur; [7]
  Cocklebur plant response rating: 0
cocklebur; [1]
  Cocklebur plant response rating: 0
cocklebur; [2]
  Plant response rating, Cocklebur: 0
cocklebur; [3]
  Cocklebur plant response rating: 0
cocklebur; [4]
  Cocklebur plant response rating: 0
cocklebur; [5]
  Cocklebur plant response rating: 0
cocklebur; Rate 250 g/ha, Postemergence
  Plant response rating (0 to 10; 0 is no effect, 10 is complete control), Cocklebur: 1
cocklebur; [6]
  Cocklebur plant response rating: 2
corn; [7]
  Corn plant response rating: 0
corn; [1]
  Corn plant response rating: 0
corn; [2]
  Plant response rating, Corn: 3
corn; [3]
  Corn plant response rating: 0
corn; [4]
  Corn plant response rating: 0
corn; [5]
  Corn plant response rating: 0
corn; Rate 250 g/ha, Postemergence
  Plant response rating (0 to 10; 0 is no effect, 10 is complete control), Corn: 0
corn; [6]
  Corn plant response rating: 0
crabgrass; [7]
  Crabgrass plant response rating: 3
crabgrass; [1]
  Crabgrass plant response rating: 10
crabgrass; [2]
  Plant response rating, Crabgrass: 10
crabgrass; [5]
  Crabgrass plant response rating: 3
crabgrass; Rate 250 g/ha, Postemergence
  Plant response rating (0 to 10; 0 is no effect, 10 is complete control), Crabgrass: 0
crabgrass; [6]
  Crabgrass plant response rating: 3
Giant foxtail; [7]
  Giant foxtail plant response rating: 8
Giant foxtail; [1]
  Giant foxtail plant response rating: 10
Giant foxtail; [2]
  Plant response rating, Giant foxtail: 10
Giant foxtail; [5]
  Giant foxtail plant response rating: 9
Giant foxtail; Rate 250 g/ha, Postemergence
  Plant response rating (0 to 10; 0 is no effect, 10 is complete control), Giant foxtail: 5
Giant foxtail; [6]
  Giant foxtail plant response rating: 8
morningglory; [7]
  Morningglory plant response rating: 0
morningglory; [1]
  Morningglory plant response rating: 0
morningglory; [2]
  Plant response rating, Morningglory: 0
morningglory; [5]
  Morningglory plant response rating: 0
morningglory; Rate 250 g/ha, Postemergence
  Plant response rating (0 to 10; 0 is no effect, 10 is complete control), Morningglory: 9
morningglory; [6]
  Morningglory plant response rating: 9
pigweed; [7]
  Redroot pigweed plant response rating: 0
pigweed; [1]
  Redroot pigweed plant response rating: 0
pigweed; [2]
  Plant response rating, Redroot pigweed: 3
pigweed; [5]
  Redroot pigweed plant response rating: 0
pigweed; Rate 250 g/ha, Postemergence
  Plant response rating (0 to 10; 0 is no effect, 10 is complete control), Redroot pigweed: 2
pigweed; [6]
  Redroot pigweed plant response rating: 3
rape; [7]
  Rape plant response rating: 0
rape; [1]
  Rape plant response rating: 10
rape; [2]
  Plant response rating, Rape: 10
rape; [5]
  Rape plant response rating: 2
rape; Rate 250 g/ha, Postemergence
  Plant response rating (0 to 10; 0 is no effect, 10 is complete control), Rape: 0
rape; [6]
  Rape plant response rating: 0
soybean; [7]
  Soybean plant response rating: 0
soybean; [1]
  Soybean plant response rating: 0
soybean; [2]
  Plant response rating, Soybean: 2
soybean; [5]
  Soybean plant response rating: 0
soybean; [6]
  Soybean plant response rating: 4
Sugar beet; [7]
  Sugarbeets plant response rating: 0
Sugar beet; [1]
  Sugarbeets plant response rating: 2
Sugar beet; [2]
  Plant response rating, Sugarbeets: 8
Sugar beet; [5]
  Sugarbeets plant response rating: 1
Sugar beet; [6]
  Sugarbeets plant response rating: 0
velvetleaf; [7]
  Velvetleaf plant response rating: 0
velvetleaf; [1]
  Velvetleaf plant response rating: 4
velvetleaf; [2]
  Plant response rating, Velvetleaf: 5
velvetleaf; [5]
  Velvetleaf plant response rating: 2
velvetleaf; [6]
  Velvetleaf plant response rating: 3
wheat; [7]
  Wheat plant response rating: 0
wheat; [1]
  Wheat plant response rating: 0
wheat; [2]
  Plant response rating, Wheat: 5
wheat; [5]
  Wheat plant response rating: 0
wheat; [6]
  Wheat plant response rating: 4
Purple nutsedge; [1]
  Nutsedge plant response rating: 0
Purple nutsedge; [2]
  Plant response rating, Nutsedge: 0
Purple nutsedge; Rate 250 g/ha, Postemergence
  Plant response rating (0 to 10; 0 is no effect, 10 is complete control), Nutsedge: 0
Purple nutsedge; [6]
  Nutsedge plant response rating: 3
rice; [8]
  Rice plant response rating: 0
rice; [9]
  Rice plant response rating: 0
rice; [10]
  Rice plant response rating: 0
rice; [11]
  Rice plant response rating: 0
Smallflower flatsedge; [8]
  S. Flatsedge plant response rating: 0
Smallflower flatsedge; [9]
  S. Flatsedge plant response rating: 0
Smallflower flatsedge; [10]
  S. Flatsedge plant response rating: 0
Smallflower flatsedge; [11]
  S. Flatsedge plant response rating: 0
Duck salad; [8]
  Ducksalad plant response rating: 0
Duck salad; [9]
  Ducksalad plant response rating: 0
Duck salad; [10]
  Ducksalad plant response rating: 0
Duck salad; [11]
  Ducksalad plant response rating: 0
